Measurements taken from the METLIN SMRT retention time set (Domingo-Almenara et al. 2019).

Assay: gradient 5% acetonitrile 3 min, to 50% in 2 min, to 85% in 15 min, held 3 min, 100 µL/min
Conditions: column: Zorbax Extend-C18 2.1 x 50 mm; eluents: water / acetonitrile, 0.1% formic acid
Outline: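 Over 3 months, pure standards in mixtures of ~100 molecules were run by HPLC coupled to a quadrupole time-of-flight mass spectrometer in positive and negative ionization mode. The column was a Zorbax Extend-C18 (2.1 × 50 mm, 1.8 μm) at 100 μL/min, eluted with water and acetonitrile each holding 0.1% formic acid, with 40 μL dead and 900 μL dwell volumes. Retention time was determined from adduct peaks chosen by software and checked manually.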

Compound | RP-LC retention time
COc1ccc(OC)c(-c2ccc(=O)n(Cc3ccccn3)n2)c1 | 622 s
CCOc1ccccc1NC(=O)N1CCCC1c1c(C)noc1C (configuration not stated) | 833 s
Fc1ccc(-c2noc(-c3ccc(N4CCCC4)nc3)n2)cc1 | 1040 s
CCOC(=O)c1c(S(=O)(=O)N2CCC(C(=O)Nc3ccc(OC)cc3)CC2)c(C)n(CC)c1C | 857 s
CCNC(=O)N1CCCC(c2cccc(C(=O)NC3CCCC3)c2)C1 (configuration not stated) | 764 s
NS(=O)(=O)c1ccc(NS(=O)(=O)c2cc(-c3ccno3)cs2)cc1 | 710 s
Cc1cc(NC(=O)c2cn(Cc3cccc(F)c3)nc2OCc2cccc(F)c2)no1 | 1040 s
CCC1CN(C(=O)N2CCC(C(=O)NCCN3CCOCC3)CC2)c2cc(C)ccc2O1 (configuration not stated) | 632 s
CN1C(=O)c2ccccc2Oc2ccc(C(=O)NC3CCCC3)cc21 | 725 s
COc1ccc(C2Cn3nnc(-c4nc(-c5ccc(C)cc5)no4)c3CO2)cc1 (configuration not stated) | 1180 s
O=C(NCc1ccc2c(c1)OCO2)c1nnc2n(c1=O)CCN2c1ccc(F)cc1 | 683 s
Cc1nnc(-c2cn(CC(=O)NCc3cccc(Br)c3)c3ccccc23)o1 | 838 s
O=C(Nc1nc(CC(=O)N2CCCc3ccccc32)cs1)C1CC1 | 739 s
Cc1ccccc1Cn1cc(-c2ccncc2)cc1C(=O)NCC(C)C | 712 s
COc1cc(OC)c(NC(=O)c2cc3c(=O)oc4ccccc4c3n2C)cc1Cl | 1030 s
Cc1ccccc1CNC(=O)C1CCN(Cc2cn(C)c3ccc(Cl)cc23)CC1 | 740 s
Cc1noc(C)c1CCC(=O)N1CCCn2ccnc2C1C1CCCC1 (configuration not stated) | 613 s
CCCCn1c(=O)c2c(nc3n2CCCCN3c2ccc(OCC)cc2)n(C)c1=O | 1050 s
Cc1noc(-c2ccc(OC3CN(C(=O)c4ccco4)C3)cc2)n1 | 789 s

Compound | RP-LC retention time
O=C(Nc1ccc2ncccc2c1)Nc1ccc2ncccc2c1 | 604 s
COc1ccc(-c2nnc(-c3ccccc3)o2)cc1S(=O)(=O)N(C)C | 840 s
Cc1nn(CCCC(=O)NCCN2CCCC2)c(=O)c2c(-n3cccc3)n(-c3ccccc3)nc12 | 666 s
O=C(Nc1nccs1)C1CCN(C(=O)c2ccc([N+](=O)[O-])o2)CC1 | 658 s
CCCC(=O)Nc1ccc(CCc2nc3ccc(C(=O)NC4CCCC4)cc3[nH]2)cc1 | 650 s
CC(C)NC(=O)CN1C(=O)C2CCCCN2c2ccc(C(=O)N3CCCCC3)cc21 (configuration not stated) | 735 s
Cc1ccc(N2CC(c3nc(-c4ccc5c(c4)nc(C)c(=O)n5C)no3)CC2=O)cc1C (configuration not stated) | 876 s
COCCN1[C@@H]2CCN(Cc3ccc(C#N)cc3)C[C@@]2(C(=O)N2CCOCC2)CCS1(=O)=O | 641 s
CC1CCN(c2cc(-n3cnc(C(=O)N4CCC5(CC4)OCCO5)c3)ncn2)CC1 | 834 s
CC(C)CNC(=O)N1CCC(CCOc2cccnc2)CC1 | 605 s
CCCn1cc(C2=CCN(C(=O)NCc3ccc(C)cc3)CC2)c2cccnc21 | 939 s
CC(=O)Nc1ccc2cc3ccc(NC(C)=O)cc3nc2c1 | 632 s
CCCN(CCC)CCCNC(=O)C1CCCN(c2ncc(-c3ccc(F)cc3)cn2)C1 (configuration not stated) | 749 s
Cc1ccc(-c2nc(N)n(C(=O)C(C)(C)C)n2)cc1 | 1080 s
Cc1ccc(C)c(NS(=O)(=O)c2cc(-c3[nH]ncc3C(=O)N3CCCCC3)oc2C)c1 | 799 s
Cc1nc(C)c(-c2nnc(NC(=O)NCc3cccs3)o2)s1 | 672 s
Cc1nc(-c2noc(-c3ccccc3)n2)cn1CC(=O)NCc1ccc(Cl)cc1 | 866 s
CC(C)NC(=O)Cn1cccc(-c2nc(-c3ccc(F)cc3)no2)c1=O | 735 s
